Test results as given in patent US20210252028A1, “SYNTHETIC COMPOSITION FOR MICROBIOTA MODULATION” (Glycom A/S, priority 2016, published 2021).

Experiments:
[1] = test system: B. adolescentis phylogenetic group; assay: ITS profiling of the Bifidobacterium community in faeces of healthy adults after 2 weeks of HMO consumption; format: in vivo, human; details: for percentage increase of B. adolescentis phylogenetic group: healthy adults, 2 weeks, faecal analyses
Procedure: (§1) A total of 100 male and female healthy adults are recruited to participate in the study. After a screening visit and run-in period of 1-2 weeks, the participants are selected and randomized into ten groups, each of 10 subjects. One group is administered a placebo product containing 2 grams of glucose. The remaining 9 groups are administered treatment product containing a) 20 g of 2′-FL, b) 10 g of 2′-FL, c) 5 g of 2′-FL, d) 20 g of LNnT, e) 10 g of LNnT, f) 5 g of LNnT, g) 20 g of a 2:1 mixture of 2′-FL and LNnT, h) 10 g of a 2:1 mixture of 2′-FL and LNnT, and i) 5 g of a 2:1 mixture of 2′-FL and LNnT for 2 weeks (the amounts correspond to a daily dosis). The placebo and treatment products are in powder form in a unit dosage container.
(§2) The study runs for 2 weeks with the participants consuming either a placebo or a treatment product daily. Participants are instructed to consume the products in the morning with breakfast. Compliance is monitored through the interactive internet enabled system.
(§3) To assess the Bifidobacterium community, ITS profiling of DNA samples is performed according to Milani et al. FEMS Microbiol. Ecol. 90, 493 (2014). […] Both B. adolescentis and B. pseudocatenulatum are members of the B. adolescentis phylogenetic group. It can be seen that oral ingestion of the HMOs clearly increases the abundance of B. adolescentis and/or B. pseudocatenulatum in the microbiota of healthy adults, as well as their relative abundance compared to the totality of other Bifidobacterium species.

[2] = test system: totality of B. longum + B. bifidum + B. animalis lactis + B. angulatum; assay: as above; format: in vivo, human; details: faecal analyses
Procedure: as §1, §2, §3

| Molecule | abundance of B. adolescentis and/or B. pseudocatenulatum and relative abundance compared to the totality of other Bifidobacterium species ([1]; healthy adults carrying the FUT2 mutation compared with secretors) | percentage increase of B. adolescentis phylogenetic group ([1]; daily dose 5 g) [%] | percentage increase of B. adolescentis phylogenetic group ([1]; daily dose 10 g) [%] | percentage increase of B. adolescentis phylogenetic group ([1]; daily dose 20 g) [%] | percentage increase of totality of B. longum + B. bifidum + B. animalis lactis + B. angulatum ([2]; daily dose 5 g) [%] | percentage increase of totality of B. longum + B. bifidum + B. animalis lactis + B. angulatum ([2]; daily dose 10 g) [%] | percentage increase of totality of B. longum + B. bifidum + B. animalis lactis + B. angulatum ([2]; daily dose 20 g) [%] |
| --- | --- | --- | --- | --- | --- | --- | --- |
| 2′-fucosyllactose [2′-FL] | increases in a manner similar to those in secretors | 50 | 325 | 120 | 0 | 20 | 15 |
| CC(=O)N[C@H]1[C@H](O[C@H]2[C@@H](O)[C@@H](CO)O[C@@H](O[C@H]3[C@H](O)[C@@H](O)C(O)O[C@@H]3CO)[C@@H]2O)O[C@H](CO)[C@@H](O[C@@H]2O[C@H](CO)[C@H](O)[C@H](O)[C@H]2O)[C@@H]1O (mixture of isomers) [LNnT, lacto-N-neotetraose] |  | 90 | 195 | 185 | 50 | 130 | 105 |
